Measured values taken from patent publication US20240287082A1, “NEW BENZODIAZEPINE DERIVATIVES AS GABA A GAMMA1 PAM” (Hoffmann-La Roche Inc., priority 2021, published 2024).
pKi: −log10 of the molar value. Read-outs that look alike come from different tables or passages of the source.

Legend:
[1] = molecular target: h-GABA-A α2β2γ1 (Homo sapiens (Human), UniProt P47869+Q8N1C3); assay: Two-electrode voltage clamp electrophysiology in Xenopus oocytes expressing GABAA receptors, modulation of GABA EC20 current; assay type: cell-based; settings: for potentiation of the GABA-induced current: α2β2γ1 GABAA receptor subtype expressing oocytes, reference PAMs; for Efficacy (GABA) %: % modulation of GABA EC20 = 100*(Fold increase−1), compound at 30-fold Ki α2β2γ1; for Fold increase h-GABA-A α2β2γ1 oocyte @ 30-fold Ki: Xenopus oocytes, GABA EC20, test compound at approx. 30-fold its Ki α2β2γ1
Experimental: Xenopus laevis oocytes at maturation stages V-VI were used for the expression of cloned mRNA encoding GABAA receptor subunits. Oocytes ready for RNA micro-injection were bought from Ecocyte, Castrop-Rauxel, Germany and stored in modified Barth's medium (composition in mM: NaCl 88, KCl 1, NaHCO3 2.4, HEPES 10, MgSO4 0.82, CaNO3 0.33, CaCl2 0.33, pH=7.5) at 20° C. until the experiment.
Oocytes were plated in 96-well plates for microinjection using the Roboinject automated instrument (MultiChannelSystems, Reutlingen, Germany). Approximately 50 nL of an aqueous solution containing the RNA transcripts for the subunits of the desired GABAA receptor subtype was injected into each oocyte. […] Oocytes were kept in modified Barth's medium (composition in mM: NaCl 88, KCl 1, NaHCO3 […], HEPES 10, MgSO4 0.82, CaNO3 0.33, CaCl2 0.33, pH=7.5) at 20° C. until the experiment.
Electrophysiological experiments were performed using the Roboocyte instrument (MultiChannelSystems, Reutlingen, Germany) on days 3 to 5 after the micro-injection of mRNA. During the experiment the oocytes were constantly superfused by a solution containing (in mM) NaCl 90, KCl 1, HEPES 5, MgCl2 1, CaCl2 1 (pH 7.4). Oocytes were impaled by two glass microelectrodes (resistance: 0.5-0.8 MΩ) which were filled with a solution containing KCl 1M+K-acetate 1.5 M and voltage-clamped to −80 mV. The recordings were performed at room temperature using the Roboocyte two-electrode voltage clamp system (Multichannelsystem). After an initial equilibration period of 1.5 min GABA was added for 1.5 min at a concentration evoking approximately 20% of a maximal current response (EC20). After another rest interval of 2.5 min GABA was again added evoking a response of similar amplitude and shape. […] Current traces were recorded at a digitization rate of 10 Hz during and shortly before and after the GABA application.
Each compound and concentration was tested on at least 3 oocytes. Different oocytes were used for different compound concentrations.
For the analysis, the digitized current traces of the first and second GABA response were superimposed and, if necessary, rescaled to equal maximal amplitudes. The ratio between the two responses during the time interval of test compound application was calculated point by point. The extremum of the resulting “ratio trace” was taken as the efficacy (“Fold increase”) of the compound expressed as “% modulation of GABA EC20” (100*(Fold increase−1)).

[2] = molecular target: human GABAA α1β3γ2 receptor (Homo sapiens (Human), UniProt P14867+P18507); assay: Radioligand binding assay, competition for [3H]Flumazenil, γ2-containing GABAA subtype α1β3γ2
Experimental: The affinity of compounds at GABAA γ2 subunit-containing receptors was measured by competition for [^3H]Flumazenil (81.1 Ci/mmol; Roche) binding to HEK293F cells expressing human (transiently transfected) receptors of composition α1β3γ2.
Harvested pellets from HEK293F cells expressing the different GABAA γ2 receptor subtypes were resuspended in Mannitol Buffer pH 7.2-7.4 and processed as described above for the cells expressing the GABAA γ1 subunit-containing receptors.
Assays were incubated to equilibrium for 1 hour at 4° C. and harvested onto GF/C uni-filters (Packard) by filtration using a Packard harvester and washing with ice-cold wash buffer (50 mM Tris; pH 7.5). After anhydrousing, filter-retained radioactivity was detected by liquid scintillation counting. Ki values were calculated using Excel-Fit (Microsoft) and are the means of two determinations.

[3] = molecular target: human GABAA α5β2γ1 receptor (Homo sapiens (Human), UniProt P31644+Q8N1C3); assay: Radioligand binding assay, competition for [3H]RO7239181, γ1-containing GABAA subtype α5β2γ1
Experimental: The affinity of compounds at GABAA γ1 subunit-containing receptors was measured by competition for [^3H]RO7239181 (67.3 Ci/mmol; Roche) binding to membranes from HEK293F cells (ThermoFisher R^79007) expressing human (transiently transfected) receptors of composition α5β2γ1, α2β2γ1, α1β2γ1. For better protein expression of the α2 subunit-containing receptors, the 28 amino acid long signal peptide (Met1 to Ala28)of the human GABAA α2 subunit was substituted by the 31 amino acid long signal peptide (Met1 to Ser31) of human GABAA α5 subunit.
(§1) Harvested pellets from HEK293F cells expressing the different GABAA receptor subtypes were resuspended in Mannitol Buffer pH 7.2-7.4 (Mannitol 0.29M, Triethylamine 10 mM, Acetic acid 10 mM, EDTA 1 mM plus protease inhibitors (20 tablets Complete, Roche Diagnostics Cat. No. 05 056 489 001 per liter)), washed two times and then resuspended at 1:10 to 1:15 dilution in the same buffer. Cell disruption was performed by stirring the suspension in a Parr vessel #4637 at 435 psi for 15 minutes, and then the suspensions were centrifuged at 1000×g for 15 minutes at 4° C. (Beckman Avanti J-HC: rotor JS-4.2). The supernatant (S1) was transferred in a 21 Schott flask and the pellet (P1) was resuspended with Mannitol Buffer up to 175 ml. The resuspended pellet was transferred into a 250 ml Corning centrifugal beaker and centrifuged at 1500×g for 10 minutes at 4° C. (Beckman Avanti J-HC: rotor JS-4.2). The supernatant (S1) was then transferred in the 21 Schott flask and the pellet was discarded. The supernatants (S1) were centrifuged in 500 ml Beckman polypropylene centrifugal beaker at 15 000×g for 30 minutes at 4° C. (Beckman Avanti J-20 XP: rotor JLA-10.500). The pellet (P2) was resuspended with Mannitol Buffer 1:1 and frozen at −80° C. The supernatant (S2) was centrifuged in 100 ml Beckman polypropylene centrifugal tubes at 48000×g for 50 minutes at 4° C. (Beckman Avanti J-20 XP: rotor JA-18). The supernatant (S3) was discarded and the pellet (P3) was resuspended with 1:1 Mannitol Buffer. The P2 and P3 protein concentration was determined with the BIORAD Standard assay method with bovine serum albumin as standard and measured on the NANO-Drop 1000. The membrane suspension was aliquots (500 μl per tube) and stored at −80° C. until required.
(§2) Membrane homogenates were resuspended and polytronised (Polytron PT1200E Kinematica AG) in Potassium Phosphate 10 mM, KCl 100 mM binding buffer at pH 7.4 to a final assay concentration determined with a previous experiment.
Radioligand binding assays were carried out in a volume of 200 μL (96-well plates) which contained 100 μL of cell membranes, [3H]RO7239181 at a concentration of 1.5 nM (α5β2γ1) or 20-30 nM (α1β2γ1, α2β2γ1) and the test compound in the range of [0.3-1000]×10^−9 M. Nonspecific binding was defined by 10×10^−6 (α5β2γ1) and 30×10^−6 M RO7239181 and typically represented less than 5% (α5β2γ1) and less than 20% (α1β2γ1, α2β2γ1) of the total binding. Assays were incubated to equilibrium for 1 hour at 4° C. and then, membranes were filtered onto unifilter (96-well white microplate with bonded GF/C filters preincubated 20-50 minutes in 0.3% Polyethylenimine) with a Filtermate 196 harvester (Packard BioScience) and washed 4 times with cold Potassium Phosphate 10 mM pH 7.4, KCl 100 mM binding buffer. After anhydrousing, filter-retained radioactivity was detected by liquid scintillation counting. Ki values were calculated using Excel-Fit (Microsoft) and are the means of two determinations.

[4] = molecular target: human GABAA α2β2γ1 receptor (Homo sapiens (Human), UniProt P47869+Q8N1C3); assay: Radioligand binding assay, competition for [3H]RO7239181, γ1-containing GABAA subtype α2β2γ1; settings: for γ2/γ1 Selectivity Ratio: Ki α1β3γ2 (nM)/Ki α2β2γ1 (nM); for LogSel: Log[Ki α1β3γ2 (nM)/Ki α2β2γ1 (nM)]
Experimental: The affinity of compounds at GABAA γ1 subunit-containing receptors was measured by competition for [^3H]RO7239181 (67.3 Ci/mmol; Roche) binding to membranes from HEK293F cells (ThermoFisher R^79007) expressing human (transiently transfected) receptors of composition α5β2γ1, α2β2γ1, α1β2γ1.
as §1, §2
Assays were incubated to equilibrium for 1 hour at 4° C. and then, membranes were filtered onto unifilter (96-well white microplate with bonded GF/C filters preincubated 20-50 minutes in 0.3% Polyethylenimine) with a Filtermate 196 harvester (Packard BioScience) and washed 4 times with cold Potassium Phosphate 10 mM pH 7.4, KCl 100 mM binding buffer. After anhydrousing, filter-retained radioactivity was detected by liquid scintillation counting. Ki values were calculated using Excel-Fit (Microsoft) and are the means of two determinations.

[5] = read-out: Ki h-GABAA α2β2γ1, Table 2, membranes of HEK293F cells, [3H]RO7239181

SMILES: CN1C(=O)CN=C(c2ccccc2F)c2cc([N+](=O)[O-])ccc21 [Flunitrazepam, reference compound]
- potentiation of the GABA-induced current [1]: ~60%

SMILES: Cc1cn2c(nc1=O)[C@H](C)N=C(c1c(F)cccc1F)c1c-2ccc(Cl)c1Cl [Example 7, (5S)-8,9-dichloro-7-(2,6-difluorophenyl)-2,5-dimethyl-5H-pyrimido[1,2-a][1,4]benzodiazepin-3-one]
- Efficacy (GABA) % [1]: 53%
- Fold increase h-GABA-A α2β2γ1 oocyte @ 30-fold Ki [1]: 1.53
- pKi [2]: 6.16
- pKi [3]: 8.85
- pKi [4]: 7.95
- γ2/γ1 Selectivity Ratio [4]: 61.2
- LogSel [4]: 1.79
- pKi [4, 5]: 7.95

SMILES: O=c1ccn2c(n1)CN=C(c1c(F)cccc1F)c1c-2ccc(Br)c1Cl [Example 12, 9-bromo-8-chloro-7-(2,6-difluorophenyl)-5H-pyrimido[1,2-a][1,4]benzodiazepin-3-one]
- Efficacy (GABA) % [1]: 65%
- Fold increase h-GABA-A α2β2γ1 oocyte @ 30-fold Ki [1]: 1.65
- pKi [2]: 6.49
- pKi [3]: 9.15
- pKi [4]: 8.34
- γ2/γ1 Selectivity Ratio [4]: 70.5
- LogSel [4]: 1.85
- pKi [4, 5]: 8.34

SMILES: O=c1nc2n(cc1Br)-c1ccc(Br)c(Cl)c1C(c1c(F)cccc1F)=NC2 [Example 15, 2,9-dibromo-8-chloro-7-(2,6-difluorophenyl)-5H-pyrimido[1,2-a][1,4]benzodiazepin-3-one]
- Efficacy (GABA) % [1]: 69%
- Fold increase h-GABA-A α2β2γ1 oocyte @ 30-fold Ki [1]: 1.69
- pKi [2]: 5.71
- pKi [3]: 9.10
- pKi [4]: 8.10
- γ2/γ1 Selectivity Ratio [4]: 244.8
- LogSel [4]: 2.39
- pKi [4, 5]: 8.10

SMILES: O=c1ccn2c(n1)CN=C(c1c(F)cccc1F)c1c-2ccc(Cl)c1Br [Example 17, 8-bromo-9-chloro-7-(2,6-difluorophenyl)-5H-pyrimido[1,2-a][1,4]benzodiazepin-3-one]
- Efficacy (GABA) % [1]: 79%
- Fold increase h-GABA-A α2β2γ1 oocyte @ 30-fold Ki [1]: 1.79
- pKi [2]: 6.29
- pKi [3]: 9.00
- pKi [4]: 7.86
- γ2/γ1 Selectivity Ratio [4]: 36.9
- LogSel [4]: 1.57
- pKi [4, 5]: 7.86

SMILES: Cc1nnc2n1-c1ccc(Cl)cc1C(c1ccccc1Cl)=NC2 [Triazolam, reference compound]
- potentiation of the GABA-induced current [1]: ~60%
- LogSel ([4]; Table 3): −1.5

SMILES: CCc1cn2c(nc1=O)[C@H](C)N=C(c1c(F)cccc1F)c1c-2ccc(Cl)c1Cl [Example 14, (5S)-8,9-dichloro-7-(2,6-difluorophenyl)-2-ethyl-5-methyl-5H-pyrimido[1,2-a][1,4]benzodiazepine-3-one]
- Efficacy (GABA) % [1]: 66%
- Fold increase h-GABA-A α2β2γ1 oocyte @ 30-fold Ki [1]: 1.66
- pKi [2]: 6.04
- pKi [3]: 8.64
- pKi [4]: 7.81
- γ2/γ1 Selectivity Ratio [4]: 58.4
- LogSel [4]: 1.77
- pKi [4, 5]: 7.81

SMILES: Cc1ncc2n1-c1ccc(Cl)cc1C(c1ccccc1F)=NC2 [Midazolam, reference compound]
- potentiation of the GABA-induced current [1]: ~60%
- LogSel ([4]; Table 3): −2.2

SMILES: C[C@@H]1N=C(c2c(F)cccc2F)c2c(ccc(Cl)c2Br)-n2cc(Br)c(=O)nc21 [Example 23, (5S)-2,8-dibromo-9-chloro-7-(2,6-difluorophenyl)-5-methyl-5H-pyrimido[1,2-a][1,4]benzodiazepin-3-one]
- Efficacy (GABA) % [1]: 107%
- Fold increase h-GABA-A α2β2γ1 oocyte @ 30-fold Ki [1]: 2.07
- pKi [2]: 5.52
- pKi [3]: 8.17
- pKi [4]: 7.13
- γ2/γ1 Selectivity Ratio [4]: 40.5
- LogSel [4]: 1.61
- pKi [4, 5]: 7.13

SMILES: O=c1ccn2c(n1)CN=C(c1ccccc1F)c1cc(Cl)ccc1-2 [RE-A, 9-chloro-7-(2-fluorophenyl)-5H-pyrimido[1,2-a][1,4]benzodiazepin-3-one, reference compound]
- pKi [2]: 7.56
- pKi [4]: 6.91
- γ2/γ1 Selectivity Ratio ([4]; Table 3): 0.23
- LogSel ([4]; Table 3): −0.64

SMILES: Cc1nnc2n1-c1ccc(Cl)cc1C(c1ccccc1)=NC2 [Alprazolam, reference compound]
- LogSel ([4]; Table 3): −2.3
